Reference: patent US12252524B2, “GIP/GLP1 co-agonist compounds” (Eli Lilly and Company, priority 2018, dated 2025)
Numbered stars: 1 amine (or outer) side, 2 acyl side, 3 side chain; on linkers, the order of the positions; unused ones are H or OH. Square brackets hold non-standard residues; d marks the D form. Side chains are listed from the residue outwards. Peptide text beside a SMILES is read from it. * marks the point of attachment. C20 diacid = O=C(O)CCCCCCCCCCCCCCCCCCC(=O)*; C18 diacid = O=C(O)CCCCCCCCCCCCCCCCC(=O)*; αMePhe(2-F) = C[C@](N)(Cc1ccccc1F)C(=O)O; γGlu = O=C(O)[C@H](CCC(=O)[*:2])N[*:1]; αMeF = C[C@](N)(Cc1ccccc1)C(=O)O; 4Pal = N[C@@H](Cc1ccncc1)C(=O)O; αMeL = CC(C)C[C@](C)(N)C(=O)O; AEEA = NCCOCCOCC(=O)O; Aib = CC(C)(N)C(=O)O

Tests used:
human Gcg receptor = biological target: T1, human Gcg receptor (Homo sapiens, UniProt P47871); experiment: [125I]-Glucagon binding (SPA), human Gcg receptor; settings: read-out: hGLcgR Ki, nM (SEM, n)
T1 construct: expressed in transfected cells; crude membranes
In short: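 Crude membranes from cells expressing the receptor, prepared by hypotonic lysis in 50 mM Tris HCl pH 7.5 with protease inhibitors, homogenization and differential centrifugation, were used in a WGA-bead SPA. Binding buffer: 25 mM HEPES pH 7.4, 2.5 mM CaCl2, 1 mM MgCl2, bacitracin, Tween-20.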

human GIP receptor = biological target: T2, human GIP receptor (Homo sapiens, UniProt P48546); experiment: [125I]-GIP binding (SPA), human GIP receptor; settings: read-out: hGIPR Ki, nM (SEM, n)
T2 construct: expressed in transfected cells; crude membranes
T2 sequence (P48546 22-466): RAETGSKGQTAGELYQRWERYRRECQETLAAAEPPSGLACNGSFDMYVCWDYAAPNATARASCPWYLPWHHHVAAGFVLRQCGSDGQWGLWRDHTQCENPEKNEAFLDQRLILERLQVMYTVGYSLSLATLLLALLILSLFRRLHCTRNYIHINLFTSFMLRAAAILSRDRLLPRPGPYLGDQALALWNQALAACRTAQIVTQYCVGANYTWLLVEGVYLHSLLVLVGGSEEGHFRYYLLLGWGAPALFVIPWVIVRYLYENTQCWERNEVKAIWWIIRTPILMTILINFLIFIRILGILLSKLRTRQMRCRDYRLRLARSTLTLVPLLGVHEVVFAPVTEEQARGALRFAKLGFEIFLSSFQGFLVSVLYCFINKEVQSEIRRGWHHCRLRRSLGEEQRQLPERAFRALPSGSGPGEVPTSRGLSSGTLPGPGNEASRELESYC

[1] = biological target: human GLP-1 receptor (GLP-1R) (Homo sapiens, UniProt P43220); experiment: cAMP pharmacological functional assay in presence of casein, hGLP-1R; format: cell-based; settings: HEK293 cells expressing hGLP-1R, 0.1% Casein, geometric mean; read-out: hGLP1R cAMP Rel EC50 nM (SEM, n)
[2] = biological target: T3, gastric inhibitory peptide receptor (GIPR) (Homo sapiens, UniProt P48546); experiment: cAMP pharmacological functional assay in presence of casein, hGIPR; format: cell-based; settings: HEK293 cells expressing hGIPR, 0.1% Casein, geometric mean; read-out: hGIPR cAMP Rel EC50 nM (SEM, n)
T3 sequence (P48546 22-466): T2 sequence (P48546 22-466)

human GLP-1R = human GLP-1R (Homo sapiens, UniProt P43220); experiment: [125I]-GLP-1 binding (SPA), human GLP-1 receptor; design: expressed in transfected cells; crude membranes; settings: read-out: hGLP1R Ki, (nM) (SEM, n)
In short: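 Assay buffer: HEPES 25 mM, pH 7.4, CaCl2 2.5 mM, MgCl2 1 mM, with EDTA-free protease inhibitors. Receptor came from crude cell membranes prepared by homogenization and centrifugation at 4° C. IC50s came from four-parameter fits (maximum, minimum, IC50, Hill slope) and were expressed as Ki geometric means with SEM.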

T1 sequence (P47871 26-477): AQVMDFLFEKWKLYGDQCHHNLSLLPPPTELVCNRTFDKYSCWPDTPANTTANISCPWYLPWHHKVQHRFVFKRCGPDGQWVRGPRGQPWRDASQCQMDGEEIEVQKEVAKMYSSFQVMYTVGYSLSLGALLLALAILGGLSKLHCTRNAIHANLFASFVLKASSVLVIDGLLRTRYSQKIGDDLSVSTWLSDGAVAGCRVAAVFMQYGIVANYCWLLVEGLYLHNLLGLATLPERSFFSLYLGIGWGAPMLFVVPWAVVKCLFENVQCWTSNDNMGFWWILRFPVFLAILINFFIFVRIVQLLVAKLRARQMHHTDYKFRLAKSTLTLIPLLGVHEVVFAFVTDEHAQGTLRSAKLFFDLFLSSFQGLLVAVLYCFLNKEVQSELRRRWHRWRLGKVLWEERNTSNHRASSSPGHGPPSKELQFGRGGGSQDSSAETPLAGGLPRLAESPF
Chain of human GLP-1 receptor (GLP-1R) (P43220 24-463): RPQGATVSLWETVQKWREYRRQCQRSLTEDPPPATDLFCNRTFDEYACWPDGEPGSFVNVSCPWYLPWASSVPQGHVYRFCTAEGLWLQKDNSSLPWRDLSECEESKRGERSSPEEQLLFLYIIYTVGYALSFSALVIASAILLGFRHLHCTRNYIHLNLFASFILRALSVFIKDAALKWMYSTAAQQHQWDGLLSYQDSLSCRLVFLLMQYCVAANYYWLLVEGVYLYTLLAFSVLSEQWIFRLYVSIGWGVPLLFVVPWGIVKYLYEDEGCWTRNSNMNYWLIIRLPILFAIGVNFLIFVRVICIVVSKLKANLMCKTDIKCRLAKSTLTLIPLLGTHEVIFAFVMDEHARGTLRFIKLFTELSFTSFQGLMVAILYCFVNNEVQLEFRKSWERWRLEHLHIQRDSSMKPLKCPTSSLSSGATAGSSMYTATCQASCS
Chain of human GLP-1R (P43220 24-463): as above

| Compound | Ki (human Gcg receptor) [nM] | Ki (human GIP receptor) [nM] | EC50 [1] [nM] | EC50 [2] [nM] | Ki (human GLP-1R) [nM] |
| --- | --- | --- | --- | --- | --- |
| CC[C@H](C)[C@H](NC(=O)[C@H](CC(C)C)NC(=O)[C@H](Cc1ccc(O)cc1)NC(=O)[C@H](CCC(=O)O)NC(=O)[C@@H](NC(=O)[C@H](Cc1ccccc1)NC(=O)[C@H](CCC(=O)O)NC(=O)C(C)(C)NC(=O)[C@H](CCC(N)=O)NC(=O)[C@H](C)NC(=O)[C@H](CCCCNC(=O)COCCOCCNC(=O)COCCOCCNC(=O)CC[C@H](NC(=O)CCCCCCCCCCCCCCCCC(=O)O)C(=O)O)NC(=O)[C@H](CCCCN)NC(=O)[C@H](CC(=O)O)NC(=O)[C@H](CC(C)C)NC(=O)[C@H](CC(C)C)NC(=O)[C@@H](NC(=O)[C@H](CO)NC(=O)[C@H](Cc1ccc(O)cc1)NC(=O)[C@H](CC(=O)O)NC(=O)[C@H](CO)NC(=O)[C@@H](NC(=O)[C@H](Cc1ccccc1)NC(=O)[C@@H](NC(=O)CNC(=O)[C@H](CCC(=O)O)NC(=O)C(C)(C)NC(=O)[C@@H](N)Cc1ccc(O)cc1)[C@@H](C)O)[C@@H](C)O)[C@@H](C)CC)[C@@H](C)CC)C(=O)N[C@@H](CCC(=O)O)C(=O)NCC(=O)NCC(=O)N1CCC[C@H]1C(=O)N[C@@H](CO)C(=O)N[C@@H](CO)C(=O)NCC(N)=O [Example 270] (H-Y[Aib]EGTFTSDYSILLDKK([AEEA-AEEA-γGlu-C18 diacid])AQ[Aib]EFIEYLIEGGPSSG-NH2; N-terminus assumed) | > 1190 | 0.117 | 0.128 | 0.328 | 8.27 |
| CC[C@H](C)[C@H](NC(=O)[C@H](CC(C)C)NC(=O)[C@H](Cc1ccc(O)cc1)NC(=O)[C@H](CCC(=O)O)NC(=O)[C@@H](NC(=O)[C@H](Cc1ccccc1)NC(=O)[C@H](C)NC(=O)C(C)(C)NC(=O)[C@H](CCC(N)=O)NC(=O)[C@H](C)NC(=O)[C@H](CCCCNC(=O)COCCOCCNC(=O)COCCOCCNC(=O)CC[C@H](NC(=O)CCCCCCCCCCCCCCCCCCC(=O)O)C(=O)O)NC(=O)[C@H](CCCCN)NC(=O)[C@H](CC(=O)O)NC(=O)[C@H](CC(C)C)NC(=O)[C@H](CC(C)C)NC(=O)[C@@H](NC(=O)[C@H](CO)NC(=O)[C@H](Cc1ccc(O)cc1)NC(=O)[C@H](CC(=O)O)NC(=O)[C@H](CO)NC(=O)[C@@H](NC(=O)[C@H](Cc1ccccc1)NC(=O)[C@@H](NC(=O)CNC(=O)[C@H](CCC(=O)O)NC(=O)C(C)(C)NC(=O)[C@H](N)Cc1ccc(O)cc1)[C@@H](C)O)[C@@H](C)O)[C@@H](C)CC)[C@@H](C)CC)C(=O)N[C@@H](CCC(=O)O)C(=O)NCC(=O)NCC(=O)N1CCC[C@H]1C(=O)N[C@@H](CO)C(=O)N[C@@H](CO)C(=O)NCC(=O)N[C@@H](C)C(=O)N1CCC[C@H]1C(=O)N1CCC[C@H]1C(=O)N1CCC[C@H]1C(=O)N[C@@H](CO)C(N)=O [Example 78] | 215 | 0.163 | 0.544 | 0.532 | 3.94 |
| CC[C@H](C)[C@H](NC(=O)[C@H](CC(C)C)NC(=O)[C@H](Cc1ccc(O)cc1)NC(=O)[C@@H](CCC(=O)O)NC(=O)[C@@H](NC(=O)[C@H](Cc1ccccc1)NC(=O)[C@H](CCC(=O)O)NC(=O)C(C)(C)NC(=O)[C@H](CCC(N)=O)NC(=O)[C@H](C)NC(=O)[C@H](CCCCNC(=O)COCCOCCNC(=O)COCCOCCNC(=O)CC[C@H](NC(=O)CCCCCCCCCCCCCCCCC(=O)O)C(=O)O)NC(=O)[C@H](CCC(=O)O)NC(=O)[C@H](CC(=O)O)NC(=O)[C@H](CC(C)C)NC(=O)[C@](C)(CC(C)C)NC(=O)[C@@H](NC(=O)[C@H](CO)NC(=O)[C@H](Cc1ccc(O)cc1)NC(=O)[C@H](CC(=O)O)NC(=O)[C@H](CO)NC(=O)[C@@H](NC(=O)[C@](C)(Cc1ccccc1F)NC(=O)[C@@H](NC(=O)CNC(=O)[C@H](CCC(=O)O)NC(=O)C(C)(C)NC(=O)[C@@H](N)Cc1ccc(O)cc1)[C@@H](C)O)[C@@H](C)O)[C@@H](C)CC)[C@@H](C)CC)C(=O)N[C@@H](CCC(=O)O)C(=O)NCC(=O)NCC(N)=O [Example 220] (H-Y[Aib]EGT[αMePhe(2-F)]TSDYSI[αMeL]LDEK([AEEA-AEEA-γGlu-C18 diacid])AQ[Aib]EFI[dE]YLIEGG-NH2; N-terminus assumed) | 377 | 0.0919 | 0.0312 | 0.0315 | 2.71 |
| CC[C@H](C)[C@H](NC(=O)[C@H](CC(C)C)NC(=O)[C@H](Cc1ccc(O)cc1)NC(=O)[C@H](CCC(=O)O)NC(=O)[C@@H](NC(=O)[C@H](Cc1ccccc1)NC(=O)[C@H](C)NC(=O)[C@H](C)NC(=O)[C@H](CCC(N)=O)NC(=O)[C@H](C)NC(=O)[C@H](CCCCNC(=O)COCCOCCNC(=O)COCCOCCNC(=O)CC[C@H](NC(=O)CCCCCCCCCCCCCCCCCCC(=O)O)C(=O)O)NC(=O)[C@H](CCCCN)NC(=O)[C@H](CC(=O)O)NC(=O)[C@H](CC(C)C)NC(=O)[C@H](CC(C)C)NC(=O)[C@@H](NC(=O)[C@H](CO)NC(=O)[C@H](Cc1ccc(O)cc1)NC(=O)[C@H](CC(=O)O)NC(=O)[C@H](CO)NC(=O)[C@@H](NC(=O)[C@H](Cc1ccccc1)NC(=O)[C@@H](NC(=O)CNC(=O)[C@H](CCC(=O)O)NC(=O)C(C)(C)NC(=O)[C@@H](N)Cc1ccc(O)cc1)[C@@H](C)O)[C@@H](C)O)[C@@H](C)CC)[C@@H](C)CC)C(=O)N[C@@H](CCC(=O)O)C(=O)NCC(=O)NCC(=O)N1CCC[C@H]1C(=O)N[C@@H](CO)C(=O)N[C@@H](CO)C(=O)NCC(=O)N[C@@H](C)C(=O)N1CCC[C@H]1C(=O)N1CCC[C@H]1C(=O)N1CCC[C@H]1C(=O)N[C@@H](CO)C(N)=O [Example 253] (H-Y[Aib]EGTFTSDYSILLDKK([AEEA-AEEA-γGlu-C20 diacid])AQAAFIEYLIEGGPSSGAPPPS-NH2) | > 912 | 0.138 | 0.109 | 0.219 | 2.57 |
| CC[C@H](C)[C@H](NC(=O)[C@H](CC(C)C)NC(=O)[C@H](Cc1ccc(O)cc1)NC(=O)[C@H](CCC(=O)O)NC(=O)[C@@H](NC(=O)[C@H](Cc1ccccc1)NC(=O)[C@H](CCC(=O)O)NC(=O)C(C)(C)NC(=O)[C@H](CCC(N)=O)NC(=O)[C@H](C)NC(=O)[C@H](CCCCNC(=O)COCCOCCNC(=O)COCCOCCNC(=O)CC[C@H](NC(=O)CCCCCCCCCCCCCCCCCCC(=O)O)C(=O)O)NC(=O)[C@H](CCC(=O)O)NC(=O)[C@H](CC(=O)O)NC(=O)[C@H](CC(C)C)NC(=O)[C@](C)(CC(C)C)NC(=O)[C@@H](NC(=O)[C@H](CO)NC(=O)[C@H](Cc1ccncc1)NC(=O)[C@H](CC(=O)O)NC(=O)[C@H](CO)NC(=O)[C@@H](NC(=O)[C@](C)(Cc1ccccc1F)NC(=O)[C@@H](NC(=O)CNC(=O)[C@H](CCC(=O)O)NC(=O)C(C)(C)NC(=O)[C@@H](N)Cc1ccc(O)cc1)[C@@H](C)O)[C@@H](C)O)[C@@H](C)CC)[C@@H](C)CC)C(=O)N[C@@H](CCC(=O)O)C(=O)NCC(=O)NCC(=O)N1CCC[C@H]1C(=O)N[C@@H](CO)C(=O)N[C@@H](CO)C(=O)NCC(=O)N[C@@H](C)C(=O)N1CCC[C@H]1C(=O)N1CCC[C@H]1C(=O)N1CCC[C@H]1C(=O)N[C@@H](CO)C(N)=O [Example 158] (H-Y[Aib]EGT[αMePhe(2-F)]TSD[4Pal]SI[αMeL]LDEK([AEEA-AEEA-γGlu-C20 diacid])AQ[Aib]EFIEYLIEGGPSSGAPPPS-NH2; N-terminus assumed) | 285 | 0.114 | 0.0374 | 0.0454 | 11.8 |
| CC[C@H](C)[C@H](NC(=O)[C@H](CC(C)C)NC(=O)[C@H](Cc1ccc(O)cc1)NC(=O)[C@@H](CCC(=O)O)NC(=O)[C@@H](NC(=O)[C@H](Cc1ccccc1)NC(=O)[C@H](CCC(=O)O)NC(=O)C(C)(C)NC(=O)[C@H](CCC(N)=O)NC(=O)[C@H](C)NC(=O)[C@H](CCCCNC(=O)COCCOCCNC(=O)COCCOCCNC(=O)CC[C@H](NC(=O)CCCCCCCCCCCCCCCCCCC(=O)O)C(=O)O)NC(=O)[C@H](CCC(=O)O)NC(=O)[C@H](CC(=O)O)NC(=O)[C@H](CC(C)C)NC(=O)C(C)(C)NC(=O)[C@@H](NC(=O)[C@H](CO)NC(=O)[C@H](Cc1ccc(O)cc1)NC(=O)[C@H](CC(=O)O)NC(=O)[C@H](CO)NC(=O)[C@@H](NC(=O)[C@](C)(Cc1ccccc1)NC(=O)[C@@H](NC(=O)CNC(=O)[C@H](CCC(=O)O)NC(=O)C(C)(C)NC(=O)[C@@H](N)Cc1ccc(O)cc1)[C@@H](C)O)[C@@H](C)O)[C@@H](C)CC)[C@@H](C)CC)C(=O)N[C@@H](CCC(=O)O)C(=O)NCC(=O)NCC(=O)N1CCC[C@H]1C(=O)N[C@@H](CO)C(=O)N[C@@H](CO)C(=O)NCC(=O)N[C@@H](C)C(=O)N1CCC[C@H]1C(=O)N1CCC[C@H]1C(=O)N1CCC[C@H]1C(=O)N[C@@H](CO)C(N)=O [Example 225] (H-Y[Aib]EGT[αMeF]TSDYSI[Aib]LDEK([AEEA-AEEA-γGlu-C20 diacid])AQ[Aib]EFI[dE]YLIEGGPSSGAPPPS-NH2) | 714 | 0.0622 | 0.067 | 0.101 | 8.79 |
